According to PubChem BioAssay (NCI):
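Method: 48-hour compound exposure of cells in 96-well plates, five concentrations, linear interpolation of endpoints. GI50 marks 50% less growth. Definition used: TGI = concentration required for complete inhibition of growth.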

Tests used:
Assay in all cases: growth of human tumour cells (NCI), 48 h
OVCAR-8 ovarian = tested on: OVCAR-8 ovarian
SNB-19 CNS = tested on: SNB-19 CNS
PC-3 prostate = tested on: PC-3 prostate
LOX IMVI melanoma = tested on: LOX IMVI melanoma
A498 renal = tested on: A498 renal
SF-295 CNS = tested on: SF-295 CNS
COLO 205 colon = tested on: COLO 205 colon
NCI-H460 lung = tested on: NCI-H460 lung
HOP-92 NSCLC = tested on: HOP-92 NSCLC

Row | SMILES | TGI (OVCAR-8 ovarian) | TGI (SNB-19 CNS) | TGI (PC-3 prostate) | TGI (LOX IMVI melanoma) | TGI (A498 renal) | TGI (SF-295 CNS) | TGI (COLO 205 colon) | TGI (NCI-H460 lung) | TGI (HOP-92 NSCLC) | GI50 (OVCAR-8 ovarian) | GI50 (SNB-19 CNS) | GI50 (PC-3 prostate) | GI50 (LOX IMVI melanoma) | GI50 (A498 renal) | GI50 (SF-295 CNS) | GI50 (COLO 205 colon) | GI50 (NCI-H460 lung)
1 | OC(C1CCC=NN1C(O)(C(F)(F)F)C(F)(F)F)(C(F)(F)F)C(F)(F)F (stereo unspecified) | > 10 µM | > 10 µM | > 10 µM | > 10 µM | > 10 µM | > 10 µM | > 10 µM | > 10 µM | > 10 µM |  |  |  |  |  |  |  | 
2 | CC(C)Oc1c(-c2c(OC(C)C)c(=O)c2=O)c(=O)c1=O | > 71.9 µM | > 100 µM | > 100 µM | > 47.1 µM | > 100 µM | > 100 µM | > 51.9 µM | > 100 µM | > 100 µM |  |  |  |  |  |  |  | 
3 | S=C1c2ccccc2NC(=NC2CCCC2)C2CSCN12 (stereo unspecified) | > 100 µM | > 100 µM | > 100 µM | > 100 µM | > 100 µM | > 100 µM | > 100 µM | > 100 µM |  |  |  |  |  |  |  |  | 
4 | Cc1c(C)c(C)c(-n2[nH]c(=O)n(C)c2=O)c(C)c1C | > 100 µM | > 100 µM | > 100 µM | > 100 µM | > 100 µM | > 100 µM | > 100 µM | > 100 µM | > 100 µM |  |  |  |  |  |  |  | 
5 | CC1=NOC2(C1)/C(=N/O)CCC/C2=N\O (stereo unspecified) | > 100 µM | > 100 µM | > 100 µM | > 100 µM |  | > 100 µM | > 100 µM | > 100 µM |  |  |  |  |  |  |  |  | 
6 | O=[N+]([O-])c1cccc(-c2csc(N=Nc3c(O)[nH]c4ccccc34)n2)c1 | 30 µM | 82.2 µM | 99.4 µM | 42.5 µM | 80.1 µM | 44.4 µM | > 100 µM | 31.8 µM | 46.5 µM |  |  |  |  |  |  |  | 
7 | CCC(CCCN)Nc1cc(OC)cc2cccnc12 (stereo unspecified) | > 100 µM | > 100 µM | > 100 µM | > 100 µM | > 100 µM | > 100 µM | > 100 µM | > 100 µM | > 100 µM |  |  |  |  |  |  |  | 
8 | CCC1C(=O)C[C@H]2[C@@H]3C(O)CC4=CC(=O)CC[C@]4(C)[C@H]3CC[C@]12C (stereo partly specified) | > 50 µM | > 50 µM | > 50 µM | > 50 µM | > 50 µM | > 50 µM | > 50 µM | > 50 µM | > 50 µM |  |  |  |  |  |  |  | 
9 | COc1ccc(N[C@H](CS(=O)c2ccc(C)cc2)c2ccc(F)cc2)cc1 (stereo partly specified) | > 100 µM | > 100 µM | > 100 µM | > 100 µM |  | > 100 µM | > 100 µM | > 100 µM |  |  |  |  |  |  |  |  | 
10 | Brc1ccc(N=NN2CCCCC2)cc1 | > 100 µM | > 100 µM | > 100 µM | > 100 µM | > 100 µM | > 100 µM | > 100 µM | > 100 µM | > 100 µM |  |  |  |  |  |  |  | 
11 | CC(C)(CN)CN | > 100 µM | > 100 µM | > 100 µM | > 100 µM | > 100 µM | > 100 µM | > 100 µM | > 100 µM | > 100 µM |  |  |  |  |  |  |  | 
12 | CC(=O)c1ccc(N=Nc2ccc3nonc3c2N)cc1 | > 100 µM | > 100 µM | > 100 µM | > 100 µM |  | > 100 µM | > 100 µM | > 100 µM | > 100 µM |  |  |  |  |  |  |  | 
13 | O=C(CSc1nc2ccccc2[nH]1)Nc1ccc(-c2nc3ccccc3s2)c(Cl)c1 | > 100 µM | 65.8 µM | > 100 µM | > 100 µM | 52.7 µM | > 100 µM | 51.4 µM | > 100 µM |  | 3.35 µM | 5.44 µM | 2.83 µM | 4.95 µM | 2.22 µM | 3.63 µM | 4.16 µM | 3.47 µM
14 | CSc1c(C(=O)Nc2ccccc2)c(N)nn1-c1ccccc1 | > 100 µM | > 100 µM | > 100 µM | > 100 µM | > 100 µM |  | > 100 µM | > 100 µM |  |  |  |  |  |  |  |  | 
15 | CCNC(=O)Nc1cccc(C)n1 | > 100 µM | > 100 µM | > 100 µM |  | > 100 µM | > 100 µM | > 100 µM | > 100 µM | > 100 µM |  |  |  |  |  |  |  | 
16 | Cc1ccc(S(=O)(=O)N/C(=C\C=C\c2ccccc2)C(=O)C(C)(C)C)cc1 | > 100 µM | > 100 µM | > 100 µM | > 100 µM | > 100 µM | > 100 µM | > 100 µM | > 100 µM | 71.9 µM |  |  |  |  |  |  |  | 
17 | CCCCOC(=O)C(=O)C(CCC(=O)c1ccc(C)cc1)C(=O)C=C(C)C (stereo unspecified) | > 100 µM | > 100 µM | > 100 µM | > 100 µM | > 100 µM | > 100 µM |  | > 100 µM | > 100 µM |  |  |  |  |  |  |  | 
18 | O=C(Nc1sccc1S(=O)(=O)c1ccccc1)c1cccnc1 | > 100 µM | > 100 µM | > 100 µM | > 100 µM |  | > 100 µM | 18 µM | > 100 µM | > 100 µM |  |  |  |  |  |  |  | 
19 | COc1cc(-c2nc3cc(F)ccc3s2)ccc1O | > 100 µM | > 100 µM | > 100 µM | > 100 µM | 83.8 µM | > 100 µM | > 100 µM | > 100 µM |  |  |  |  |  |  |  |  | 
20 | COc1ccc2c(c1)O[C@@H]1C(O)Oc3cc(OC)c(OC)cc3[C@]1(O)C2=O (stereo partly specified) | > 100 µM | > 100 µM | > 100 µM | > 100 µM | > 100 µM | > 100 µM | > 100 µM | > 100 µM |  |  |  |  |  |  |  |  | 
21 | CC(C)(C)OC(=O)n1cc(C2CNC(=O)C23CCC(=O)N3Cc2ccccc2)c2ccccc21 (stereo unspecified) |  | > 100 µM | 79.3 µM | 44 µM | 35.3 µM | 35.3 µM | 33.4 µM | 47.6 µM | 26.7 µM |  |  |  |  |  |  |  | 
22 | CC(=O)NCCCCNCCCNC(C)=O | > 100 µM | > 100 µM |  | > 100 µM | > 100 µM | > 100 µM | > 100 µM | > 100 µM | > 100 µM |  |  |  |  |  |  |  | 
23 | N#CC1=C2Sc3ccccc3N2[C@H](c2ccccc2)[C@H]2COC(=O)[C@@H]12 | > 100 µM | > 100 µM | > 100 µM | 91.6 µM | > 100 µM | > 100 µM | > 100 µM |  | > 100 µM |  |  |  |  |  |  |  | 
24 | O=C1C(Br)=CC2([N+](=O)[O-])CCNc3c(O)c4c5c(c3C2=C1Br)=NCCC=5C=N4 (stereo unspecified) | 2.38 µM | 9.72 µM |  | 6.4 µM | 14.5 µM | 4.63 µM | 0.133 µM | 12.1 µM | 2.07 µM |  |  |  |  |  |  |  | 
